Test results published in patent US20190218304A1, “POTENTIATING THE EFFECT OF ATP RELEASE” (INNATE PHARMA, priority 2017, published 2019).

System: MCA205 mouse tumor cells (sarcoma)
Experiment: In vivo combination treatment, MCA205 tumors in human CD39 KI mice
[1] = first experimental series: oxaliplatin at day 5, murine I-394 twice a week from day 4
[2] = second experimental series, repeated oxaliplatin

Experimental: 1×10^6 MCA205 mouse tumor cells (sarcoma) were subcutaneously engrafted in the right flank of mice genetically modified to express human CD39 (CD39KI mice). […] Tumors were measured twice a week with a caliper (L: length and w: width) and tumor volume was calculated with the formula (L×w2)/2. Mice were sacrificed when tumor volume was above 1800 mm^3 or when tumors were highly necrosed. The human CD39 KI mice were engrafted with MCA205 tumor cells at day 0.
In a first experimental series, mice were treated at day 5 post tumor cell engraftment with either control (1 group) PBS, or oxaliplatin chemotherapy (2 groups). In parallel, one group of mice treated with oxaliplatin was injected twice a week with anti-CD39 antibody, with the anti-CD39 antibody treatment starting just one day before oxaliplatin treatment (at day 4).

## O=C1[O][Pt]2([NH][C@@H]3CCCC[C@H]3[NH]2)[O]C1=O [oxaliplatin]
[1]
  Complete Response (CR), number of mice: no CR
  Survival median: 25 days
Second experimental series, 40 days post tumor engraftment
  tumor free mice: 2/12
[2]
  CR (complete responses), number of mice: 2
  partial responses (PR), number of mice: 3
Second experimental series: oxaliplatin injected twice, one week apart, one day after I-394
  effect on tumor growth / tumor volume and mice survival: some regression of tumor volume, and increase in mice survival
